# Data reported in patent US20080107619A1, “Carbohydrate based cellulase inhibitors as feeding stimulants in termites” (University of Florida Research Foundation, Inc., priority 2006, published 2008).
# Entries after “also recorded” stand apart in the source; their conditions may differ.
# Tests used:
# [1] = tested on: Formosan Subterranean Termite β-glucosidases; settings: after feeding; Zhu et al.; cited from earlier work
# [2] = tested on: R. flavipes; settings: choice tests; Waller et al.; cited from earlier work
# [3] = tested on: R. virginicus; settings: choice tests; Waller et al.; cited from earlier work
# [4] = tested on: R. flavipes worker termites; experiment: Validative feeding bioassays with mono- and di-saccharides; type: in vivo; settings: no-choice tests; concentrations tested 0.004-3.0% wt/wt; FIG. 12A
SMILES,inhibition [1],consumption of treated paper substrates versus untreated controls [2],consumption of treated paper substrates versus untreated controls [3],feeding stimulation [4]
COc1cc(C=CC(=O)O)cc(OC)c1O (stereo in doubt) [sinapinic acid],completely ineffective,,,
OC[C@H]1O[C@@](CO)(O[C@H]2O[C@H](CO)[C@@H](O)[C@H](O)[C@H]2O)[C@@H](O)[C@@H]1O [sucrose],,consumed more paper substrates,consumed more paper substrates,
O=C[C@H](O)[C@@H](O)[C@H](O)CO [xylose],,consumed more paper substrates,consumed more paper substrates,
OC[C@H]1O[C@H](O[C@H]2[C@H](O)[C@@H](O)C(O)O[C@@H]2CO)[C@H](O)[C@@H](O)[C@@H]1O (mixture of isomers) [maltose],,,,generally a feeding deterrent; also recorded: no significant feeding stimulation
O=C[C@H](O)[C@@H](O)[C@H](O[C@@H]1O[C@H](CO)[C@@H](O)[C@H](O)[C@H]1O)[C@H](O)CO [cellobiose],,,,no significant feeding stimulation
